Measured values from patent publication US8536114B2, “Macrocycles” (Scynexis, Inc., priority 2008, dated 2013).
Numbered stars: 1 amine (or outer) side, 2 acyl side, 3 side chain; on linkers, the order of the positions; unused ones are H or OH. Square brackets hold non-standard residues; d marks the D form. Peptide text beside a SMILES is read from it. ξ: configuration not given here. X1 = CC(=O)OC(C)(C)C[C@@H](C(=O)[*:2])N(C)[*:1]; ξNMeBmt = C/C=C/C[C@@H](C)[C@@H](O)C(NC)C(=O)O; dNMeL = CN[C@H](CC(C)C)C(=O)O; dNMeV = CN[C@@H](C(=O)O)C(C)C; dAbu = CC[C@@H](N)C(=O)O; Sar = CNCC(=O)O

Experiments:
[1] = test system: IL-2; assay: T Cell stimulation (IL-2) in Jurkat cells with anti-CD3 and anti-CD28 co-stimulation; assay type: cell-based; conditions: Homo sapiens, supernatant after 6 hours
Protocol: Compounds of formula (I) were tested for their T Cell stimulation (IL-2) in Jurkat cells with anti-CD3 and anti-CD28 co-stimulation. […] All compounds to be tested were dissolved in dimethyl sulfoxide. Cytotoxicity was evaluated with parallel Alamar Blue plates. Jurkat cells were seeded at 2×10^5 cells per well in 190 μL growth media in a 96-well plate. Cells were cultured in RPMI 1640 medium, 10% fetal bovine serum, and L-Glutamine with incubation at 37° C. with 5% carbon dioxide. After 1 hour of incubation the cells were stimulated with immobilized anti-CD3 (0.4 μg/well), anti-CD28 soluble (2 μg/mL). After 6 hours the sample supernatants were harvested and stored at −80° C. 50 μL samples of supernatant were tested for IL-2 using a Luminex® 1-plex assay.

[2] = test system: Mitochondria prepared from rat livers; assay: Mitochondrial permeability transition (Ca2+-induced mitochondrial swelling); assay type: biochemical; conditions: rat liver mitochondria, swelling induced by 150 micro molar Ca2+, compounds added 5 minutes before; read-out: MPT EC50 (inhibition of mitochondrial swelling)
Protocol: Mitochondrial permeability transition (MPT) was determined by measuring swelling of the mitochondria induced by Ca^2+. The procedure was adapted from the method described by Blattner et al., 2001, Analytical Biochem., 295: 220. Mitochondria were prepared from rat livers, which had been perfused with phosphate-buffered saline (PBS) to remove blood, using standard methods that utilized gentle homogenization in sucrose based buffer and then differential centrifugation to first remove cellular debris and then to pellet the mitochondria. Swelling was induced by 150 micro molar Ca^2+ (added from a concentrated solution of Calcium chloride) and was monitored by measuring the scattering at 535-540 nm. Representative compounds were added 5 minutes before swelling was induced. EC50 were determined by comparing swelling with and without the compounds of formula (I).

| Compound | EC50 [1] [µM] | EC50 [2] [µM] |
| --- | --- | --- |
| C/C=C/C[C@@H](C)[C@@H](O)C1C(=O)N[C@H](CC)C(=O)N(C)CC(=O)N(C)[C@@H](CC(C)(C)OC(C)=O)C(=O)N[C@H](C(C)C)C(=O)N(C)[C@H](CC(C)C)C(=O)N[C@H](C)C(=O)N[C@@H](C)C(=O)N(C)[C@H](CC(C)C)C(=O)N(C)[C@H](CC(C)C)C(=O)N(C)[C@H](C(C)C)C(=O)N1C (some centres unmarked) [Compound E, [4′-acetoxy-N-methylleucine]^4cyclosporine A] (cyclo(A[dNMeL][dNMeL][dNMeV][ξNMeBmt][dAbu][Sar][X1][dV][dNMeL][dA])) | < 0.01 | – |
| [4′-hydroxy-N-methylleucine]^4cyclosporine A S-benzyl-4′-thiocarbonate [Compound X] | – | > 30 |
